From publication PMC10935098 (Molecules, 2024) come the findings set out here.

≈ marks a conversion by molar mass, not a printed value.

Assay [1] has as its system Candida tropicalis (BNCC340288). The experiment in a line: microbe, parasite or virus in culture. Particulars: 24 h, read-out: MIC, C. tropical.
The subject of assay [2] is Candida parapsilosis (BNCC336015). The assay can be described thus: microbe, parasite or virus in culture. Particulars: Lodderomyces parapsilosis, 24 h, read-out: MIC, C. parapsilosis.

Take `Clc1ccccc1C(c1ccccc1)(c1ccccc1)n1ccnc1` [clotrimazole]: the MIC is 12.5 µM (≈ 4.31 µg/mL) in assay [1] and 25 µM (≈ 8.62 µg/mL) in assay [2].
